Measurements as given in US9254273B2, “Compositions and methods for treating Alzheimer's disease and related disorders and promoting a healthy nervous system” (Icahn School of Medicine at Mount Sinai, priority 2004, dated 2016).
“Also recorded” adds a separate entry of the source. Like-named read-outs stand apart in the source and are kept apart here.

Tests used:
[1] = tested on: Tg2576 mice; assay: Aβ peptide content (ELISA) in the brain of Tg2576 mice on high-fat diet plus pinitol; type: in vivo, mouse; settings: 12-month old female Tg2576 mice, high-fat diet plus pinitol in drinking water (600 mg/liter), from 4 months of age
Excerpt: This study assessed A∃ peptide contents in the brain and in the periphery (serum) of 12-month old female Tg2576 mice in response to chronic treatment, initiating at 4 month of age, with a high-fat (HF) diet or HF diet plus pinitol (N=3-4 per group). Gender-age-matched Tg2576 mice maintained on standard rodent laboratory diet (LF diet) served as controls. High-fat diet and standard laboratory diet containing equal % of cholesterol per g/diet were purchased from Research Diet, Inc. (New Brunswick, N.J.) (Ho et al, FASEB J 2004; 18:902-204). Pinitol (Humanetics Corp.) was provided by incorporation into drinking water (600 mg pinitol/liter water), which is available ad libitum. […] For quantitative assessment of A∃ peptides (Xiang et al. Gene Expr. 2002, 10:271-278), frozen pulverized brain tissues were homogenized in 5.0 M guanidine buffer, diluted (1:10) in phosphate-buffered saline containing 0.05% (v/v) Tween-20 and 1 mM Pefabloc protease inhibitors (Roche Biochemicals, Indianapolis, Ind.) and centrifuged for 20 min at 4° C. Total Aβ1-40 or Aβ1-42 was measured by sandwich ELISA (BioSource, Camarillo, Calif.) according to the manufacturer's instructions. Serum specimens were assessed directly using the same ELISA according to the manufacturer's instructions.

[2] = tested on: γ-secretase; assay: In vitro γ-secretase assay in extracts obtained from CHO-APPswe cells; type: biochemical; settings: data not shown
Protocol: (§1) For assessment of γ-secretase activity, cell monolayers were rinsed twice with ice-cold PBS on ice, scraped from tissue culture dishes and centrifuged (1,500 rpm, 10 min, 4° C.). Cell pellets were then resuspended (0.5 ml/10 cm dish) in homogenization buffer (10 mM MOPS pH 7.0, 10 mM potassium chloride, 1× complete protease inhibitor (PI) (Roche Molecular Biochemicals, Germany) and homogenized by passing cell suspensions through a 23-gauge needle 10 times. Homogenates were then centrifuged (2,500 rpm, 15 min at 4° C.) to remove unbroken cells and nuclei. The supernatant (membrane and post-nuclear supernatant) was then centrifuged (14,000 rpm, 20 min, 4° C.) and rinsed in homogenization buffer. Membranes were then resuspended (0.5 ml/10 cm dish) in assay buffer (150 mM sodium citrate pH 6.4; 1×PI) and incubated at (2 hr) at 37° C. in 25 μl of incubation buffer per assay sample to allow for generation of the CTF-γ cleavage product; negative control samples were maintained on ice. CTF-γ cleavage products (as well as CTF-α and CTF-β) were resolved electrophoretically in 10-20% Tris-Tricine gels (Bio Rad Laboratories, CA), and identified using an anti APP polyclonal C8 antibody. Immunoreactivities were visualized autoradiographically using a chemiluminescence detection kit (SuperSignal; Pierce Biotechnology, Rockford, Ill.). […]

[3] = tested on: γ-secretase; assay: In vitro γ-secretase assay (in vitro model of amyloidosis): CTF-γ from membrane-bound APP, H4-APPswe cells; type: biochemical, human
Protocol: as §1

[4] = insulin-resistant and hyperinsulinemic monkeys; cited from earlier work
[5] = tested on: γ-secretase; assay: Aβ peptide content in conditioned media by ELISA (γ-secretase readout) in pinitol-treated H4 cells; type: cell-based, human
Protocol: For quantitative assessment of A∃ peptides (Xiang et al. Gene Expr. 2002, 10:271-278), frozen pulverized brain tissues were homogenized in 5.0 M guanidine buffer, diluted (1:10) in phosphate-buffered saline containing 0.05% (v/v) Tween-20 and 1 mM Pefabloc protease inhibitors (Roche Biochemicals, Indianapolis, Ind.) and centrifuged for 20 min at 4° C. Total Aβ1-40 or Aβ1-42 was measured by sandwich ELISA (BioSource, Camarillo, Calif.) according to the manufacturer's instructions. Serum specimens were assessed directly using the same ELISA according to the manufacturer's instructions.
(§2) In this study, cultured human glioma H4-cells with constitutive APP751 expression were treated with increasing concentrations of pinitol, and then cellular ∀- and ∃-secretase activity as well as A∃ peptide contents in the conditioned media were assessed in response to pinitol treatment over time. Growth and maintenance of H4-APP751 cells were as described in Qin et al. (J. Biol. Chem. 2002; 278:50970-50977). Confluent cell cultures were treated with increasing concentration of pinitol. At 24 and 48 hours after pinitol treatment, cells were harvested for secretase activity assays and conditioned media were collected for measurement of A∃ peptide contents. The ∀-secretase (FIG. 7A) and ∃-secretase (FIG. 7B) activities in pinitol-treated cells were measured using commercially available kits (R&D Systems). Harvested cells were homogenized in supplied buffers and homogenate was added to a secretase-specific APP peptide conjugated to the reporter molecules EDANS and DABCYL. […] Cleavage of the peptide by the secretase physically separates the EDANS and DABCYL, allowing the release of a fluorescent signal. The level of ∀-secretase (FIG. 7A) or ∃-secretase (FIG. 7B) enzymatic activity is proportional to the fluorometric reaction in the homogenate. […] A∃ peptides were measured by ELISA as described above. In FIG. 7, each value represents Mean±SEM; n=4 cultures per assay; * P<0.05 vs. control (no pinitol treatment) group (2-tailed Student's t test).

[6] = history of use, animal and human clinical scientific studies; cited from earlier work
[7] = tested on: GSK-3; assay: GSK-3 activity in the brain of Tg2576 mice; type: in vivo, mouse; settings: Tg2576 mice treated with D-pinitol
[8] = tested on: insulin receptor signal transduction; assay: Insulin receptor signal transduction in the brain of Tg2576 mice; type: in vivo, mouse
[9] = tested on: NOTCH; assay: γ-secretase-mediated cleavage of NOTCH in H4-APPswe cells; type: cell-based, human; settings: FIG. 8B
Excerpt: The selectivity of D-pinitol action was further addressed by examining its effect on cleavage of the signaling molecule NOTCH. The “gamma-secretase” complex, consisting of presenilins (PS), nicastrin (NCT), APH-1 and PEN-2, catalyzes the intramembranous proteolysis of truncated Notch derivatives to generate NICD, respectively.

[10] = biological target: T1, β-secretase (Homo sapiens, UniProt P56817); assay: Cell-based β-secretase activity assay (fluorometric kit) in pinitol-treated H4 cells; settings: cultured H4 cells, increasing concentrations of pinitol, 24 and 48 hours
T1 construct: endogenous in cells; host or cells: H4-APP751 human glioma cells (homogenate)
T1 sequence (P56817 46-501): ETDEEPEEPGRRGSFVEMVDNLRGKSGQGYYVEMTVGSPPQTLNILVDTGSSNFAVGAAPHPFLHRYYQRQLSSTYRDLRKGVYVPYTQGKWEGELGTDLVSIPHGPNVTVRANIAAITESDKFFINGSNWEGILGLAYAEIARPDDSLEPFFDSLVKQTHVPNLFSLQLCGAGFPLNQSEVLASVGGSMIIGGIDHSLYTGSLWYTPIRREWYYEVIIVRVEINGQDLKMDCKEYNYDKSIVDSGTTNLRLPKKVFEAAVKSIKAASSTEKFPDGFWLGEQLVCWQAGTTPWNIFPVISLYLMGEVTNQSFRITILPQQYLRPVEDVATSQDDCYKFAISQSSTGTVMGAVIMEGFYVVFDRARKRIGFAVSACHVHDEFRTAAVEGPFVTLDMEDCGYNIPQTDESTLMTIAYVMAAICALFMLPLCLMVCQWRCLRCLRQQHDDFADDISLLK
Protocol: as §2, with “In FIG. 7, each value represents Mean±SEM; n=4 cultures per assay; * P<0.05 vs. control (no pinitol treatment) group (2-tailed Student's t test).” left out

[11] = tested on: Tg2576 mice; assay: Cognitive function in Tg2576 mice; type: in vivo, mouse
[12] = tested on: α-secretase; assay: Cell-based α-secretase activity assay (fluorometric kit) in pinitol-treated H4 cells; set-up: species or system human; settings: cultured H4 cells, increasing concentrations of pinitol, 24 and 48 hours
Protocol: as §2, with “In FIG. 7, each value represents Mean±SEM; n=4 cultures per assay; * P<0.05 vs. control (no pinitol treatment) group (2-tailed Student's t test).” left out

[13] = tested on: NOTCH; assay: Cleavage of NOTCH in the neocortex of Tg2576 transgenic mice; type: in vivo, mouse; settings: compared to insulin-resistant and control Tg2576 mice, data not shown
[14] = LDH assay of cell toxicity; type: cell-based; settings: all concentrations tested, 50-250 μM, not shown
[15] = cited from earlier work
[16] = conditioned culture media, ELISA, increasing concentrations of pinitol
[17] = 80 mg/kg/day in drinking water from six months of age, 12-month old Tg2576 mice

## CO[C@H]1[C@H](O)[C@@H](O)[C@@H](O)[C@H](O)[C@@H]1O [D-pinitol]
[1]
  β-amyloidogenesis in the brain: amelioration
[1]; listed as pinitol
  β-amyloidogenesis in the brain: reduced
[2]; CHO-APPswe cells
  Aβ1-40 peptide in the same tissue culture: corresponding reduction
[2]; extracts from CHO-APPswe cells
  formation of the ~7 kDa CTF-γ APP: blocked in a dose dependent fashion
[3]; H4-APPswe cells, membrane-bound APP
  formation of the ~7 kDa CTF-γ APP fragment: blocked; also recorded: selective reduction
[4]
  rate of glucose disappearance: increased
[5]; [16]
  Aβ1-40 production: dose-dependent inhibition
  Aβ1-42 production: dose-dependent inhibition
[5]; cultured H4 cells, read out as Aβ1-40 and Aβ1-42 in conditioned media
  γ-secretase activity: robust inhibitory effect
[6]
  toxicity and safety in man: non-toxic and safe
[7]
  GSK-3 activity in the brain: restoration
[8]; [17]
  PI3K-p85α: increased
  S473-AKT: increased
  total IRβ: not
[8]; 80 mg/kg/day in drinking water from six months of age, 12-month old Tg2576 mice, vs insulin resistant and control mice
  Y1162/1163-phosphorylated IRβ: increased
[8]; Tg2576 mice treated with D-pinitol
  insulin receptor signal transduction in the brain: restoration
[9]
  cleavage of NOTCH: no inhibitory effect
[10]
  β-secretase activity: no effect; also recorded: does not influence
[11]; NIDDM-like insulin resistant Tg2576 mice
  cognitive impairment: beneficially influences
[11]; Tg2576 mice, 80 mg/kg body weight per day in drinking water, preliminary studies
  cognitive functions: promotes
[12]
  α-secretase activity: no effect; also recorded: does not influence
[13]
  cleavage of NOTCH in the neocortex: no inhibitory effect
[14]
  cell toxicity (LDH assay): no detectable cell toxicity
[15]; normal rats given glucose
  blood glucose concentration: lower
[15]; streptozotocin-induced diabetic rats
  blood glucose concentration: lower

## OC1C(O)C(O)C(O)C(O)C1O (stereo not drawn) [d-chiro-inositol, reference compound]
[3]; in vitro amyloidosis system
  β-amyloid formation in the in vitro system: no inhibitory effect
